Each block holds one compound with its values, some of them ahead of it.
Columns and labels:
[1] = molecular target: Cyclin-dependent kinase 2/cyclin A (Homo sapiens) (UniProt P24941+P20248+P78396); experiment: (§1) Selectivity interaction (Millipore kinase profiler) EUB0000124b CDK2; type: protein-complex assay; conditions: at 10 µM
[2] = molecular target: Cyclin-dependent kinase 2/cyclin E (Homo sapiens) (UniProt P24864+P24941+O96020); experiment: as §1; type: protein-complex assay; conditions: at 10 µM
[3] = molecular target: Tyrosine-protein kinase ABL2 (Homo sapiens, UniProt P42684); experiment: Selectivity interaction (ActivX KiNativ screen (kinase selectivity in THP-1 cell lysates)) EUB0000639a ABL2; type: subcellular; conditions: lysate, at 1 µM
Tyrosine-protein kinase ABL2, sequence (P42684 whole entry): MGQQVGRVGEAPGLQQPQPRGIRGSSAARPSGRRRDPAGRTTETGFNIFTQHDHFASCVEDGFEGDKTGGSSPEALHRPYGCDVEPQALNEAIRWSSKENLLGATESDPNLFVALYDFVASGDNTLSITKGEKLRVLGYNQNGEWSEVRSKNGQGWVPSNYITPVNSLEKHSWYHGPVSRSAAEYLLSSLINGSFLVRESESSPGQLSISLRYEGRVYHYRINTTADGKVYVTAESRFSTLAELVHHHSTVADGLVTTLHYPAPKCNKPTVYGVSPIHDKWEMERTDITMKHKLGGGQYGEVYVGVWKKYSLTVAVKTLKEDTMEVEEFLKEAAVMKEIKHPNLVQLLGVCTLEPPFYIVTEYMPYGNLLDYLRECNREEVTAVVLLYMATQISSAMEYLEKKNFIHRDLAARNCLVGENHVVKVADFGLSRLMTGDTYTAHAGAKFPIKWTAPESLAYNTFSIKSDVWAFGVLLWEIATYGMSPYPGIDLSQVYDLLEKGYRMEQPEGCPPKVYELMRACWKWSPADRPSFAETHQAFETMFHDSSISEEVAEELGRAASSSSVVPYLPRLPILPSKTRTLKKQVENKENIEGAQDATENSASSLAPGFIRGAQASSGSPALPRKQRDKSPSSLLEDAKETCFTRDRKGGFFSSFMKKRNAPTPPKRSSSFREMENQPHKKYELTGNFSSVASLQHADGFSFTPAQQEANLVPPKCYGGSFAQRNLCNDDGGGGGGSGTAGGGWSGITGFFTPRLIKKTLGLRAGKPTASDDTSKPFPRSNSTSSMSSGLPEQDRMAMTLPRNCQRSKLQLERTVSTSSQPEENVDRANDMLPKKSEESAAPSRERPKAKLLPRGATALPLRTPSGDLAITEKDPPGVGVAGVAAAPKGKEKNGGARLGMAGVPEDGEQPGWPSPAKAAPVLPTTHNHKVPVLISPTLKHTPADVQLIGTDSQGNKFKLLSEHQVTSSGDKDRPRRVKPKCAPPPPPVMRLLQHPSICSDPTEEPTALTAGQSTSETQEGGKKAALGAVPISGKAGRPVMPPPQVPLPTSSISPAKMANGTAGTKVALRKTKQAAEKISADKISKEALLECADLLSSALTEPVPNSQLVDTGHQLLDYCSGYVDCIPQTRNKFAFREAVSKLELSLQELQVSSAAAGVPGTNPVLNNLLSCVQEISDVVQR

[4] = molecular target: T1, PAN2-PAN3 deadenylation complex subunit PAN3 (Homo sapiens) (UniProt Q58A45); experiment: Selectivity interaction (ActivX KiNativ screen (kinase selectivity in THP-1 cell lysates)) EUB0000639a PAN3; type: subcellular; conditions: lysate
T1 sequence (whole entry): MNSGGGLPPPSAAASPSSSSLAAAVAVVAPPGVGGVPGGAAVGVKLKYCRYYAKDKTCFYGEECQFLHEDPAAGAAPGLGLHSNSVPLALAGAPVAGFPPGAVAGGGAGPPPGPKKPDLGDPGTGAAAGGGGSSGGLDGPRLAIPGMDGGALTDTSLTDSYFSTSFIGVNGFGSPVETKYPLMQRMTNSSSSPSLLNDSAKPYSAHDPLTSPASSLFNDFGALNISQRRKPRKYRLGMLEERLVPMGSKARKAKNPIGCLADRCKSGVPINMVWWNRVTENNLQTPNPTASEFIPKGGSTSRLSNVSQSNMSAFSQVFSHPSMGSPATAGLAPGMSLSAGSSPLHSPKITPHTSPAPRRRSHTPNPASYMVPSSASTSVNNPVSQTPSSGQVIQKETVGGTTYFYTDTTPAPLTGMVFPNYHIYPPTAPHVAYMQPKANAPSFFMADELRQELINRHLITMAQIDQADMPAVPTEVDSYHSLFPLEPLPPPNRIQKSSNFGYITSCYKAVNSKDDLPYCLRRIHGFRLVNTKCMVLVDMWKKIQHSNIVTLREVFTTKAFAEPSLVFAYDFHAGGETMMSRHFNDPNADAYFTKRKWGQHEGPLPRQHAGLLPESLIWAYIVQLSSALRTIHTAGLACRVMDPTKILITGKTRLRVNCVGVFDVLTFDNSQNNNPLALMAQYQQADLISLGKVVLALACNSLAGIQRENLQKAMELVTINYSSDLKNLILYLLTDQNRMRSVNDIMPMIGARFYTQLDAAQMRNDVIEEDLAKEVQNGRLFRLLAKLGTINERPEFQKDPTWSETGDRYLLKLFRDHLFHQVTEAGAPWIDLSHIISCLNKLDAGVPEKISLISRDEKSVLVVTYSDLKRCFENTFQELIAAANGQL

[5] = molecular target: T2, Ephrin type-B receptor 2 (Homo sapiens) (UniProt P29323); experiment: Selectivity interaction (Kinase panel (Z-LYTE Assay)) EUB0001632a EPHB2; conditions: at 10 µM
T2 sequence (whole entry): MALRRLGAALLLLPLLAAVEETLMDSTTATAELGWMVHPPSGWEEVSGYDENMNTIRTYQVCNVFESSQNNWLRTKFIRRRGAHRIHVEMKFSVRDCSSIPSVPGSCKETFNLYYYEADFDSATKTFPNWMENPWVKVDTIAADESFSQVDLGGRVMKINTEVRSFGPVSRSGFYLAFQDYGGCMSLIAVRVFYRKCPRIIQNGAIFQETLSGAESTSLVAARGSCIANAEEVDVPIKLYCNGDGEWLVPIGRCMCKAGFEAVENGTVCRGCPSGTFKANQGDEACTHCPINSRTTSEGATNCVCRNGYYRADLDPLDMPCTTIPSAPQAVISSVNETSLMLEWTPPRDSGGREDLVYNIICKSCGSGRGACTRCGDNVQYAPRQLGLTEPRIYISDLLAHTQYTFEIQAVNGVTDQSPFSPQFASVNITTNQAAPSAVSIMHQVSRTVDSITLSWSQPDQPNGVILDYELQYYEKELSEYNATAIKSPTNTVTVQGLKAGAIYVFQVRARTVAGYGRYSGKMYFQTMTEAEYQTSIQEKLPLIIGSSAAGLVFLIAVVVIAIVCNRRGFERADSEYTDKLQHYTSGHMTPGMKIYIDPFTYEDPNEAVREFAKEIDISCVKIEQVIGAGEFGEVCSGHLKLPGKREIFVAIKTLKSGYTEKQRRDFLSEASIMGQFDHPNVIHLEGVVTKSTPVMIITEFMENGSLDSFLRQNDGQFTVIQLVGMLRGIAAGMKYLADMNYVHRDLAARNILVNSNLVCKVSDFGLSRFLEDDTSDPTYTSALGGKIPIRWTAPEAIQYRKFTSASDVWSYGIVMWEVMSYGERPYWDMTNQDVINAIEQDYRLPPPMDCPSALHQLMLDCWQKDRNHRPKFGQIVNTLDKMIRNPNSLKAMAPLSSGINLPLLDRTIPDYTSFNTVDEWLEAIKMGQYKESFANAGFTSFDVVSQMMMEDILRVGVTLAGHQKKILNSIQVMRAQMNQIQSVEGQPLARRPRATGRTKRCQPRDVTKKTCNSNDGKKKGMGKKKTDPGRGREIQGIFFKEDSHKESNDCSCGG

[6] = molecular target: Mitogen-activated protein kinase kinase kinase 4 (Homo sapiens) (UniProt Q9Y6R4); experiment: Selectivity interaction (KinomeScan (DiscoverX)) EUB0001079a MAP3K4; conditions: at 1 µM
Mitogen-activated protein kinase kinase kinase 4 (Homo sapiens), sequence (Q9Y6R4 whole entry): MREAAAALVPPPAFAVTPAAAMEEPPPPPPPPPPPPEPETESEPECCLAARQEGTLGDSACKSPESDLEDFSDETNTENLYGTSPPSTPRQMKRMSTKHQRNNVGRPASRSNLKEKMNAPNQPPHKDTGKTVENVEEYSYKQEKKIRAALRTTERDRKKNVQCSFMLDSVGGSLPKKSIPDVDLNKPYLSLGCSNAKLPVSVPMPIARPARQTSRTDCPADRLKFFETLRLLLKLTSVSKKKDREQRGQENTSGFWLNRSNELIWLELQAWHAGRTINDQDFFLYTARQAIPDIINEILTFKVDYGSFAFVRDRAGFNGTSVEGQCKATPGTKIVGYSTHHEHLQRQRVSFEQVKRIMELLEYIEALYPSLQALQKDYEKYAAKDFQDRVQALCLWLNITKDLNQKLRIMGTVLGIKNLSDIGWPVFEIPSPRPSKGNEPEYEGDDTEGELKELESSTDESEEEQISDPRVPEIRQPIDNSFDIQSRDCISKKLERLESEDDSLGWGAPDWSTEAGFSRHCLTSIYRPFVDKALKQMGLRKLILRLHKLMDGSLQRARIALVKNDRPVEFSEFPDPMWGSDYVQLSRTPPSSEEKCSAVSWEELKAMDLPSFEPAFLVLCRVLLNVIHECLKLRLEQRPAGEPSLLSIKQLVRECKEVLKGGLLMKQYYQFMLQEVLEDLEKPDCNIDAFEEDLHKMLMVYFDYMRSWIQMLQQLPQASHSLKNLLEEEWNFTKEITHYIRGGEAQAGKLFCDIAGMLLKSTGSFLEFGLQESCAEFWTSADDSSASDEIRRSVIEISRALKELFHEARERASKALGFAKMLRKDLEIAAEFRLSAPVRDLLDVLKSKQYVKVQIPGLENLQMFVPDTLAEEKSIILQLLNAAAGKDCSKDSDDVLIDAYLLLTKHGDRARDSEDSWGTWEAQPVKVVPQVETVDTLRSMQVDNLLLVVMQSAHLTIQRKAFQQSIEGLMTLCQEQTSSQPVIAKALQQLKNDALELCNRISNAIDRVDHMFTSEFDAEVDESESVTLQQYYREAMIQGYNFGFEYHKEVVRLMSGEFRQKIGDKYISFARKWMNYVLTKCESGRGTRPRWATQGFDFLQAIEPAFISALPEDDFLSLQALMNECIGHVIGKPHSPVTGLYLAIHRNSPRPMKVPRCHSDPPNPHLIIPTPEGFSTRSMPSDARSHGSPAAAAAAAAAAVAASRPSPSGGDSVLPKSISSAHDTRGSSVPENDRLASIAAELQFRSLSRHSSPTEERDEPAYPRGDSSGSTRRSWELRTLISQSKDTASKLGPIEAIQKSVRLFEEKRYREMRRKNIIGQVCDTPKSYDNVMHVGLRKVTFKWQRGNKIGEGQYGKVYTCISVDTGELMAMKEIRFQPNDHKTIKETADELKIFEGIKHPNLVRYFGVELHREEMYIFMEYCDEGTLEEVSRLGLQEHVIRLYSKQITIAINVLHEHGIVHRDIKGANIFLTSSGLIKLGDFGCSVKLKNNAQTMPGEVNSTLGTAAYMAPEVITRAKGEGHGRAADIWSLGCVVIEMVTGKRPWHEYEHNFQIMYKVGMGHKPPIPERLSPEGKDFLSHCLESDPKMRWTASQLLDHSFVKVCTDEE

[7] = molecular target: T3, Serine/threonine-protein kinase 17A (Homo sapiens) (UniProt Q9UEE5); experiment: Selectivity interaction (KinomeScan (DiscoverX)) EUB0001079a STK17A; conditions: at 1 µM
T3 sequence (whole entry): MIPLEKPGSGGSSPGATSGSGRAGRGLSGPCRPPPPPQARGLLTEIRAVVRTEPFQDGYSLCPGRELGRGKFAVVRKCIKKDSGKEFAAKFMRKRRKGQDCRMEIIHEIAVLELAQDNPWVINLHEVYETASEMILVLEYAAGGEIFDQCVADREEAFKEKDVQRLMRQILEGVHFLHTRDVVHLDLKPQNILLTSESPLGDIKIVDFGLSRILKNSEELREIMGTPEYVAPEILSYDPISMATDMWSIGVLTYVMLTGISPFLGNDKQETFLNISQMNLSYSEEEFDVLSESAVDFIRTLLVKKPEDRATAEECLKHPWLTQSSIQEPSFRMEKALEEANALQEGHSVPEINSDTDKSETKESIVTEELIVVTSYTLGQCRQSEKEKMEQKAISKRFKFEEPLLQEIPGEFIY

[8] = molecular target: Tyrosine-protein kinase receptor Tie-1 (Homo sapiens) (UniProt P35590); experiment: Selectivity interaction (KinomeScan (DiscoverX)) EUB0000045b TIE1
Tyrosine-protein kinase receptor Tie-1 (Homo sapiens), sequence (P35590 whole entry): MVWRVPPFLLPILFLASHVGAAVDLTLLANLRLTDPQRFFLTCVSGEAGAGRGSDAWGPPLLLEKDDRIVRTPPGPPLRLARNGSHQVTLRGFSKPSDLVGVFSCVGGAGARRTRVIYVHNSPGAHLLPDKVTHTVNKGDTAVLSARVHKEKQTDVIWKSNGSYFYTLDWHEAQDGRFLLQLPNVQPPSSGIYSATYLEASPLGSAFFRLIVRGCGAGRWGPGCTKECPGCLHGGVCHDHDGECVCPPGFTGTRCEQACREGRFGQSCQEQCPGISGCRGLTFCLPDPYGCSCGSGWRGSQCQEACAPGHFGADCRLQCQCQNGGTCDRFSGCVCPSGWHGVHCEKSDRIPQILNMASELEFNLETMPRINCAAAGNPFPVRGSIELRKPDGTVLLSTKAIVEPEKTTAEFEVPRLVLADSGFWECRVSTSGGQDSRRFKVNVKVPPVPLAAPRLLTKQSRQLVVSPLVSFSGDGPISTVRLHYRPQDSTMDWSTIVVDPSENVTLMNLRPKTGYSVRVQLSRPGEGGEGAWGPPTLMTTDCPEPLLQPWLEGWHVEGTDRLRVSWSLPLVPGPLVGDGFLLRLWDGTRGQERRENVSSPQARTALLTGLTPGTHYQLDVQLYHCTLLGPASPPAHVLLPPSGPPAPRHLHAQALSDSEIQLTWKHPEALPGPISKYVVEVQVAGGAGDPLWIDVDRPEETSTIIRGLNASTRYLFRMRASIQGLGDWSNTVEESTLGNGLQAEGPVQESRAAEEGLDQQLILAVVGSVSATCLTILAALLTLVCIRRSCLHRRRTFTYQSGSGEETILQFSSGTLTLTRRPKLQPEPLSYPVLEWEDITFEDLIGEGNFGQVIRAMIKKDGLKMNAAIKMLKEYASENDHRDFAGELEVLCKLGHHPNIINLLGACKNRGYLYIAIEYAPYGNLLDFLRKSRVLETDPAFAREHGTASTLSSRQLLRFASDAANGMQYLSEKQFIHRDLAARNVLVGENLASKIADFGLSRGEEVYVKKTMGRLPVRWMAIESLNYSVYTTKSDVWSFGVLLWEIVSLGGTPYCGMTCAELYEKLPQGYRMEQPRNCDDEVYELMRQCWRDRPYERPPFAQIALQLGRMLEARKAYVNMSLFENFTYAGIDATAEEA

- % of control [1]: 101%
- % of control [2]: 104%
Compound: CC(=O)Nc1cccc(-n2c(=O)n(C3CC3)c(=O)c3c(Nc4ccc(I)cc4F)n(C)c(=O)c(C)c32)c1

- % of inhibition [3]: -13.2%
- % of inhibition ([4]; at 0.01 µM): 20.4%
- % of inhibition ([4]; at 0.04 µM): -4.3%
- % of inhibition ([4]; at 0.2 µM): -4.4%
- % of inhibition ([4]; at 1 µM): -2.8%
- % of inhibition ([4]; at 5 µM): -19.6%
Compound: CC[C@@H]1[C@H](F)C(=O)N[C@@H]1COc1nccc2cc(C(N)=O)c(OC)cc12 [ZIMLOVISERTIB]

- % of control [5]: 1.86%
Compound: Cn1cc(-n2cnc3c(NCc4nc5cc(Cl)c(Cl)cc5[nH]4)nc(N4CCOCC4)nc32)cn1

Compound: Nc1cnc(N2CCc3cc(S(=O)(=O)Nc4c(F)cc(Cl)cc4F)cc(N4CCCC4=O)c32)nc1 [TP-020n]
- % of control [6]: 85%
- % of control [7]: 100%

Compound: C=CC(=O)Nc1cc(-n2c(=O)ccc3cnc4ccc(-c5ccc(NS(C)(=O)=O)cc5)cc4c32)ccc1C
- % of control ([8]; at 1 µM): 100%
- % of control ([8]; at 10 µM): 89%

— ChEMBL document CHEMBL5465560, “Selectivity Literature for EUbOPEN Chemogenomic Library” (2024)
